Data as given in US9790218B2, “Small molecule activators of calcium-activated chloride channels and methods of use” (The Regents of the University of California, priority 2011, dated 2017).

Columns and labels:
TMEM16A = target: T1, TMEM16A (Homo sapiens, UniProt Q5XXA6, DEL476-501); test: Whole-cell patch-clamp of TMEM16A-expressing FRT cells; assay type: cell-based
T1 construct: expressed in transfected cells
T1 sequence (Q5XXA6 with tags, fused parts or gaps isoform Q5XXA6-5 DEL539-564): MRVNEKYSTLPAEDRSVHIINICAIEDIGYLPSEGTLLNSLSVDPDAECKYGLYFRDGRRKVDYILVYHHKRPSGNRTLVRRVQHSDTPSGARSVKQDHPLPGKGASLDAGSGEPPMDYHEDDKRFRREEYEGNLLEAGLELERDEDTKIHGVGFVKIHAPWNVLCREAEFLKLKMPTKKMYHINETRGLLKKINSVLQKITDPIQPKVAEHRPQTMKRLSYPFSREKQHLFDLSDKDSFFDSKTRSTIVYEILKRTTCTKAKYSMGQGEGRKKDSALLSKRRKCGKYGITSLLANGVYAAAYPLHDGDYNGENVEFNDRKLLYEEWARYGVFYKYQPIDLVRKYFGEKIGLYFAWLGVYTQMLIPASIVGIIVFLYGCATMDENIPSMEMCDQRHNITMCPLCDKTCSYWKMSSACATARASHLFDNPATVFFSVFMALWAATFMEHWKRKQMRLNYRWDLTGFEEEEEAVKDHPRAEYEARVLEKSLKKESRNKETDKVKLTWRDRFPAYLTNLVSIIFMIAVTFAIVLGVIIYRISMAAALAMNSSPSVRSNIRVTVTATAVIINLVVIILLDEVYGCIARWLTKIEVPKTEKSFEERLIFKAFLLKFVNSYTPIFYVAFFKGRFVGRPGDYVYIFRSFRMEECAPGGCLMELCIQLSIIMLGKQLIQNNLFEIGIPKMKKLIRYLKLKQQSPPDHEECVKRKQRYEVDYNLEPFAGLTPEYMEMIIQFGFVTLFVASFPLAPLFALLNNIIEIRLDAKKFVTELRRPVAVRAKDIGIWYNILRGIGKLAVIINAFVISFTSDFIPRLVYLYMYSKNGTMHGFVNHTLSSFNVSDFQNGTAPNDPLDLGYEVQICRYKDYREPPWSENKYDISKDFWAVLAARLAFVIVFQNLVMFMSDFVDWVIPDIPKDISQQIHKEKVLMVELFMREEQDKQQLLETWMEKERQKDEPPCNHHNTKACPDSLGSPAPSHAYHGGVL
Method: FIG. 4A-D. Patch-clamp analysis of Ca^2+ requirements for TMEM16A activation by Eact and Fact. FIG. 4A. Apical membrane current measured in TMEM16A-expressing FRT cells. ER calcium stores were depleted by CPA (50 μM, 30 min) and 0 CaCl2 in bath. ATP (100 μM), Fact (10 μM), Eact (10 μM) and T16Ainh-A01 (10 μM) were added as indicated. FIG. 4B and FIG. 4C. Whole-cell TMEM16A currents were recorded at a holding potential at 0 mV, and pulsing to voltages between ±80 mV (in steps of 20 mV) in the absence and presence of 3 μM Eact or 10 μM Fact. Free calcium concentration of pipette solutions were clamped at 0 μM, 0.07 μM, 0.15 μM, and 1 μM. Eact (3 μM) or Fact (10 μM) added as indicated. (right) Current/voltage (I/V) plots of mean currents at the middle of each voltage pulse. The Ca^2+ concentration is indicated to the right. FIG. 4D. TMEM16A inhibited by 10 μM T16Ainh-A01 after stimulation by Eact or Fact.
Whole-cell recordings were made at room temperature on TMEM16A-expressing FRT cells and human submandibular A253 cells. The bath solution contained (in mM): 140 NMDG-Cl, 1 CaCl2, 1 MgCl2, 10 glucose and 10 HEPES (pH 7.4). The pipette solution contained (in mM): 130 CsCl, 0.5 EGTA, 1 MgCl2, 1 Tris-ATP, and 10 HEPES (pH 7.2). Different concentrations of free calcium in pipette solution were obtained by replacing 0.5 mM EGTA with 5 mM EGTA, and using different amounts of CaCl2 in the pipette solution. Pipettes were pulled from borosilicate glass and had resistances of 3-5 MΩ after fire polishing. Seal resistances were between 3 and 10 GΩ. After establishing the whole-cell configuration, TMEM16A was activated by 100 μM ATP, TMEM16A activators or different concentrations of free calcium in the pipette solution. Whole-cell currents were elicited by applying hyperpolarizing and depolarizing voltage pulses from a holding potential of 0 mV to potentials between −100 mV and +100 mV in steps of 20 mV. Recordings were made at room temperature using an Axopatch-200B (Axon Instruments). Currents were digitized with a Digidata 1440A converter (Axon Instruments), filtered at […].
The Ca^2+ dependence of TMEM16A activation by Eact and Fact was investigated. […] Whole-cell currents were then recorded by patch-clamp at different cytoplasmic (pipette) [Ca^2+]. […] (FIG. 4B, bottom and right). […] Thus, Eact and Fact activate TMEM16A by different mechanisms: Eact as a largely Ca^2+-independent ‘activator’, and Fact as a ‘potentiator’ of Ca^2+ activation.

[1] = test system: mouse ileal smooth muscle; test: Intestinal smooth muscle contraction, ex vivo mouse ileal segments; conditions: T16Ainh-A01 10 μM
Method: FIG. 8A-C. Intestinal smooth muscle contraction. FIG. 8A. Representative traces from mouse ileal segments showing effects of T16Ainh-A01 (10 μM), carbachol (CCh, 1 μM) and Eact (10 μM). FIG. 8B. Effect of CCh (1 μM) and Eact (10 μM) following atropine (1 μM). FIG. 8C. Summary of contraction frequency (left), and resting and maximum tone (right) (mean±S.E., n=4-7, * P<0.05).
Wild type CD1 mice (age 8-10 weeks) were killed by avertin overdose (200 mg/kg). The ileum removed and washed with ice-cold HCO3^−-buffered solution. The ends of the ileal segments were tied with silk thread and connected to a force transducer. Beal segments were equilibrated for 60 min with a resting force of ˜1 mN, with changes of the bathing solution every 15 min. Tension was monitored continuously with a fixed-range precision force transducer (TSD, 125 C; Biopac, Goleta, Calif.) connected to a differential amplifier (DA 100B; Biopac). Data were recorded using MP100, Biopac digital acquisition system and analyzed using Acknowledge 3.5.7 software.
TMEM16A in expressed in the interstitial cells of Cajal, the pacemaker cells that control smooth muscle contraction dynamics in stomach and intestine (Huang et al., supra; Gomez-Pinilla et al. (2009) Am. J. Physiol. Gastrointest. Liver Physiol. 296, G1370-1381). The effect of Eact on mouse ileal smooth muscle contraction was investigated using an ex vivo intestinal preparation. […] Without wishing to be bound by theory, the constitutive TMEM16A activity in this ex vivo preparation could obscure Eact activity. To reveal Eact effects, atropine was first added to inhibit basal contractions. […] FIG. 8C summarizes data on contraction frequency, resting tone and maximal tone.

Compound: O=C(Nc1ccc(Br)cc1)c1cccc(-n2cnnn2)c1 [Fact, N-(4-bromophenyl)-3-(1H-tetrazol-1-yl)benzamide]
- maximum TMEM16A Cl^− current at high [Ca^2+] (TMEM16A; 3 μM Eact or 10 μM Fact): not further increased
- whole-cell Cl^− current at submaximal Ca^2+ (TMEM16A; compared to no compound, 10 μM Fact): increased Cl^− current
- whole-cell TMEM16A Cl^− current at 0 Ca^2+ (TMEM16A; pipette 0 Ca^2+, 3 μM Eact or 10 μM Fact): did not product Cl^− current

Compound: CCc1c(C)nc(SCC(=O)Nc2nc(-c3ccc(OC)cc3)cs2)[nH]c1=O [T16Ainh-A01, reference compound]
- block of Cl^− currents produced by Eact or Fact (TMEM16A; 10 μM T16Ainh-A01): completely blocked
- spontaneous intestinal contractions at baseline [1]: inhibited
